Results taken from PubChem BioAssay (NCI).
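These data come from cells grown in 96-well plates and exposed to compound for 48 hours at five concentrations. GI50 = concentration required for 50% inhibition of growth. TGI denotes the concentration required for complete inhibition of growth.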

How the values were obtained:
Assay in all cases: inhibition of tumour cell growth, NCI panel, 48 h
OVCAR-8 ovarian = tested on: OVCAR-8 ovarian
NCI/ADR-RES ovarian = tested on: NCI/ADR-RES ovarian
KM12 colon = tested on: KM12 colon
PC-3 prostate = tested on: PC-3 prostate
HOP-62 NSCLC = tested on: HOP-62 NSCLC
HOP-92 NSCLC = tested on: HOP-92 NSCLC
MDA-MB-231 breast = tested on: MDA-MB-231 breast
CAKI-1 renal = tested on: CAKI-1 renal
NCI-H226 lung = tested on: NCI-H226 lung
A549 NSCLC = tested on: A549 NSCLC
HS 578T breast = tested on: HS 578T breast
HCT-116 colon = tested on: HCT-116 colon
SF-539 CNS = tested on: SF-539 CNS
SNB-75 CNS = tested on: SNB-75 CNS
T-47D breast = tested on: T-47D breast
CCRF-CEM leukemia = tested on: CCRF-CEM leukemia
BT-549 breast = tested on: BT-549 breast
TK-10 renal = tested on: TK-10 renal
786-0 renal = tested on: 786-0 renal
UACC-257 melanoma = tested on: UACC-257 melanoma
EKVX NSCLC = tested on: EKVX NSCLC
NCI-H522 lung = tested on: NCI-H522 lung
SK-MEL-28 melanoma = tested on: SK-MEL-28 melanoma
ACHN renal = tested on: ACHN renal
MOLT-4 leukemia = tested on: MOLT-4 leukemia
RPMI-8226 leukemia = tested on: RPMI-8226 leukemia
K-562 leukemia = tested on: K-562 leukemia
HCT-15 colon = tested on: HCT-15 colon
HCC-2998 colon = tested on: HCC-2998 colon
OVCAR-5 ovarian = tested on: OVCAR-5 ovarian
DU-145 prostate = tested on: DU-145 prostate
SK-OV-3 ovarian = tested on: SK-OV-3 ovarian
UACC-62 melanoma = tested on: UACC-62 melanoma
U251 CNS = tested on: U251 CNS
SK-MEL-5 melanoma = tested on: SK-MEL-5 melanoma
NCI-H460 lung = tested on: NCI-H460 lung
UO-31 renal = tested on: UO-31 renal
SN12C renal = tested on: SN12C renal
MDA-MB-435 = tested on: MDA-MB-435
SF-268 CNS = tested on: SF-268 CNS
A498 renal = tested on: A498 renal
SK-MEL-2 melanoma = tested on: SK-MEL-2 melanoma
COLO 205 colon = tested on: COLO 205 colon
MCF7 breast = tested on: MCF7 breast
IGROV1 ovarian = tested on: IGROV1 ovarian
SNB-19 CNS = tested on: SNB-19 CNS
NCI-H23 lung = tested on: NCI-H23 lung
SF-295 CNS = tested on: SF-295 CNS
RXF 393 renal = tested on: RXF 393 renal
HT29 colon = tested on: HT29 colon
MALME-3M melanoma = tested on: MALME-3M melanoma
SR leukemia = tested on: SR leukemia
M14 melanoma = tested on: M14 melanoma
SW-620 colon = tested on: SW-620 colon
OVCAR-3 ovarian = tested on: OVCAR-3 ovarian

COc1cccc(/C(COc2ccc3c(c2)oc(=O)c2ccccc23)=N\O)c1
GI50 (OVCAR-8 ovarian): 20.8 µM
TGI (OVCAR-8 ovarian): 54 µM
GI50 (NCI/ADR-RES ovarian): 20 µM
TGI (NCI/ADR-RES ovarian): > 100 µM
GI50 (KM12 colon): 15.1 µM
TGI (KM12 colon): 39.1 µM
GI50 (PC-3 prostate): 29.5 µM
TGI (PC-3 prostate): > 100 µM
GI50 (HOP-62 NSCLC): 37 µM
TGI (HOP-62 NSCLC): > 100 µM
GI50 (HOP-92 NSCLC): 71.8 µM
TGI (HOP-92 NSCLC): > 100 µM
GI50 (MDA-MB-231 breast): 22.2 µM
TGI (MDA-MB-231 breast): 64.5 µM
GI50 (CAKI-1 renal): 26.1 µM
TGI (CAKI-1 renal): 77.2 µM
GI50 (NCI-H226 lung): 27.7 µM
TGI (NCI-H226 lung): 62 µM
GI50 (A549 NSCLC): 16.9 µM
TGI (A549 NSCLC): 51.1 µM
GI50 (HS 578T breast): 67.1 µM
TGI (HS 578T breast): > 100 µM
GI50 (HCT-116 colon): 13.2 µM
TGI (HCT-116 colon): 33.4 µM
GI50 (SF-539 CNS): 18.3 µM
TGI (SF-539 CNS): 44.3 µM
GI50 (SNB-75 CNS): 25.7 µM
TGI (SNB-75 CNS): 76.7 µM
GI50 (T-47D breast): 29.4 µM
TGI (T-47D breast): > 100 µM
GI50 (CCRF-CEM leukemia): 23.2 µM
TGI (CCRF-CEM leukemia): > 100 µM
GI50 (BT-549 breast): 23 µM
TGI (BT-549 breast): 57.9 µM
GI50 (TK-10 renal): 33.7 µM
TGI (TK-10 renal): > 100 µM
GI50 (786-0 renal): 16.9 µM
TGI (786-0 renal): 58 µM
GI50 (UACC-257 melanoma): 25 µM
TGI (UACC-257 melanoma): 61.1 µM
GI50 (EKVX NSCLC): 12.5 µM
TGI (EKVX NSCLC): 66.2 µM
GI50 (NCI-H522 lung): 20.6 µM
TGI (NCI-H522 lung): 61.3 µM
GI50 (SK-MEL-28 melanoma): 84.7 µM
TGI (SK-MEL-28 melanoma): > 100 µM
GI50 (ACHN renal): 26.7 µM
TGI (ACHN renal): > 100 µM
GI50 (MOLT-4 leukemia): 6.63 µM
TGI (MOLT-4 leukemia): 35 µM
GI50 (RPMI-8226 leukemia): 30.3 µM
TGI (RPMI-8226 leukemia): > 100 µM
GI50 (K-562 leukemia): 13.6 µM
TGI (K-562 leukemia): 85.3 µM
GI50 (HCT-15 colon): 37.2 µM
TGI (HCT-15 colon): > 100 µM
GI50 (HCC-2998 colon): 44.1 µM
TGI (HCC-2998 colon): > 100 µM
GI50 (OVCAR-5 ovarian): > 100 µM
TGI (OVCAR-5 ovarian): > 100 µM
GI50 (DU-145 prostate): 16.9 µM
TGI (DU-145 prostate): 60.7 µM
GI50 (SK-OV-3 ovarian): > 100 µM
TGI (SK-OV-3 ovarian): > 100 µM
GI50 (UACC-62 melanoma): 24.8 µM
TGI (UACC-62 melanoma): 82.1 µM
GI50 (U251 CNS): 34.4 µM
TGI (U251 CNS): > 100 µM
GI50 (SK-MEL-5 melanoma): 17.1 µM
TGI (SK-MEL-5 melanoma): 35.7 µM
GI50 (NCI-H460 lung): > 100 µM
TGI (NCI-H460 lung): > 100 µM
GI50 (UO-31 renal): 17.3 µM
TGI (UO-31 renal): 34.3 µM
GI50 (SN12C renal): 32.8 µM
TGI (SN12C renal): 96 µM
GI50 (MDA-MB-435): 19.9 µM
TGI (MDA-MB-435): 52.8 µM
GI50 (SF-268 CNS): > 100 µM
TGI (SF-268 CNS): > 100 µM
GI50 (A498 renal): 30.5 µM
TGI (A498 renal): 81.8 µM
GI50 (SK-MEL-2 melanoma): 28.6 µM
TGI (SK-MEL-2 melanoma): 69 µM
GI50 (COLO 205 colon): 25.8 µM
TGI (COLO 205 colon): 75.9 µM
GI50 (MCF7 breast): > 100 µM
TGI (MCF7 breast): > 100 µM
GI50 (IGROV1 ovarian): 28.4 µM
TGI (IGROV1 ovarian): 58.5 µM
GI50 (SNB-19 CNS): 52 µM
TGI (SNB-19 CNS): > 100 µM
GI50 (NCI-H23 lung): 33.6 µM
TGI (NCI-H23 lung): > 100 µM
GI50 (SF-295 CNS): 33.3 µM
TGI (SF-295 CNS): > 100 µM
GI50 (RXF 393 renal): 18.4 µM
TGI (RXF 393 renal): 38.3 µM
GI50 (HT29 colon): 29.6 µM
TGI (HT29 colon): > 100 µM
GI50 (MALME-3M melanoma): 33 µM
TGI (MALME-3M melanoma): 90.1 µM
GI50 (SR leukemia): 10.3 µM
TGI (SR leukemia): > 100 µM
GI50 (M14 melanoma): 32 µM
TGI (M14 melanoma): > 100 µM
GI50 (SW-620 colon): 42.5 µM
TGI (SW-620 colon): > 100 µM
GI50 (OVCAR-3 ovarian): 45 µM
TGI (OVCAR-3 ovarian): > 100 µM
